Values quoted from earlier work in article PMC3734799 (ChemMedChem, 2011).

Biological target: YopH (Yersinia pestis, UniProt O68720)
Sequence (O68720 164-468 limits assumed): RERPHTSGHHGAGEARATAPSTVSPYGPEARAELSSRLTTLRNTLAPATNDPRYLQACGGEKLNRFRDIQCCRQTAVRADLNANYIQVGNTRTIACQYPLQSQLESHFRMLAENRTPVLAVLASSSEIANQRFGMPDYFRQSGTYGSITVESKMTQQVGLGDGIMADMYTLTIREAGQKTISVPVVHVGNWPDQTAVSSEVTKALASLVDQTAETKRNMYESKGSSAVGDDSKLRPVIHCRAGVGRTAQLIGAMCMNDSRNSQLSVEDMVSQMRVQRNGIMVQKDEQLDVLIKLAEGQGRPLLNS

## O=[N+]([O-])c1ccc(OP(=O)(O)O)cc1-c1ccccc1 [compound 1, 6-nitro-[1,1'-biphenyl]-3-yl dihydrogen phosphate]
  Km: 80 µM
